Laboratory results reported in patent US20240301000A1, “TETRAPEPTIDE DERIVATIVE,COSMETIC COMPOSITION OR PHARMACEUTICAL COMPOSITION AND USE THEREOF” (SHENZHEN WINKEY TECHNOLOGY CO., LTD, priority 2021, published 2024).
Residues, ends and D or L forms follow the SMILES beside them. *: point of attachment. X1 = O=C(OCc1cc(=O)c(O)co1)*; Nicotinoyl = O=C(c1cccnc1)*

Assays:
Format in all cases: cell-based, Human
α-MSH = assay: Cell assay for inhibition of α-MSH generation (ELISA, HaCaT supernatant); details: 100 ppm, 48 h; for statistical difference in the α-MSH inhibition compared with the control group: HaCaT (FIG. 2); for effect on α-MSH expression: HaCaT supernatant, compared with PBS control group (FIG. 2)
Method: Fetal bovine serum, DMEM medium, penicillin, streptomycin, and an α-MSH ELISA kit.
(§1) Human keratinocytes (HaCaT) were purchased from the Kunming Cell Bank of China Center for Type Culture Collection under the Chinese Academy of Sciences.
• 100 ppm of the reference peptide, 100 ppm of the peptide (1), 100 ppm of the peptide (3), 100 ppm of the peptide (5), 100 ppm of NA, 100 ppm of TXC, and 100 ppm of KA.
(§2) The frozen HaCaT cells were cultured and passaged at a ratio of 1:2 to about the 5th generation, and the cells in better growth were selected as experiment subjects.
When the cells were about 80% confluent, the samples were added to each group. In the control group, a PBS solution was added and supplemented with a culture medium to 1000 μL. In the drug groups, the diluted active substance and the culture medium were added to 1000 μL and the groups were further incubated in a 5% CO2 incubator at 37° C. for 48 h. After the completion of the culture, the solutions were centrifuged at 3000 rpm for 10 min, in each of which a cell supernatant was collected to obtain a sample liquid. Operations were performed according to the instructions of the α-MSH kit.
α-MSH can promote the formation of melanin by activating tyrosinase. Therefore, down-regulation of the α-MSH expression can reduce melanin generation and exert a whitening effect.

HaCaT cells = assay: Cell viability assay (MTT) in HaCaT cells; details: 1, 10, 100 and 200 ppm, 72 h, compared with PBS control group (FIG. 1)
From the text: as §1
• the peptide H-Pro-Lys-Glu-Lys-OH (hereinafter referred to as the reference peptide), at a test concentration of 1 ppm, 10 ppm, 100 ppm, and 200 ppm, respectively; • the peptide (1), at a test concentration of 1 ppm, 10 ppm, 100 ppm, and 200 ppm, respectively; • the peptide (3), at a test concentration of 1 ppm, 10 ppm, 100 ppm, and 200 ppm, respectively; • the peptide (5), at a test concentration of 1 ppm, 10 ppm, 100 ppm, and 200 ppm, respectively.
The purpose of this experiment is to evaluate cell viability 72 h after administration and determine the effect of the peptide derivatives of the present invention on cell viability by using HaCaT cells as the experiment subject.
as §2
The cells were inoculated in a 96-well plate at 2000 cells/well. After the cells adhered to the wall, samples of the drug groups and the control group were added according to the multiple dilution method, supplemented with a culture medium to 200 μL, and cultured in a 5% CO2 incubator at 37° C. for 72 h.
Then 20 μL 5 mg/ml MTT was added to each well and the incubation was continued in the 5% CO2 incubator at 37° C. for 4 h. The original solution was removed and DMSO was added at 150 μL/well. After 5 min, the microplate reader was used to read the reference OD values at 490 nm and 630 nm wavelengths.
The MTT assay is a method of detecting cell survival and growth. The measured OD values are directly proportional to cell viability.

IL-6 = assay: Anti-inflammatory cell assay, UV-irradiated HaCaT cells, IL-6 ELISA; details: 50 ppm, 48 h after UV irradiation, compared with UV group (FIG. 3)
Method: (§3) Fetal bovine serum, DMEM medium, penicillin, streptomycin, an IL-6 ELISA kit and a TNF-α ELISA kit.
as §1
(§4) • 50 ppm of the reference peptide, 50 ppm of the peptide (1), 50 ppm of the peptide (3), and 50 ppm of the peptide (5).
as §2
(§5) When the cells were about 80% confluent, a model of inflammation stimulated by UV radiation was established. In the control group, a PBS solution was added and supplemented with the culture medium to 1000 μL, while no UV irradiation was performed; The UV group and the drug groups were exposed to an […] UV light. After irradiation, in the UV group the PBS solution and a culture medium were added to 1000 μL, and in the drug groups the diluted active substance and the culture medium were added to 1000 μL. The control group, the UV group, and the drug groups were further incubated in a 5% CO2 incubator at 37° C. for 48 h. After the completion of the culture, the solutions were centrifuged at 3000 rpm for 10 min, in each of which a cell supernatant was collected to obtain a sample liquid. […]

TNF-α = assay: Anti-inflammatory cell assay, UV-irradiated HaCaT cells, TNF-α ELISA; details: 50 ppm, 48 h after UV irradiation, compared with UV group (FIG. 4)
Method: as §3, §1, §4, §2, §5

Row | Molecule | statistical difference in the α-MSH inhibition compared with the control group (α-MSH) | effect on α-MSH expression (α-MSH) | effect on HaCaT cell viability (HaCaT cells) | effect on IL-6 expression (IL-6) | effect on TNF-α expression (TNF-α)
1 | O=c1cc(CO)occ1O [KA, kojic acid] | no statistical difference | inhibited the α-MSH expression to a certain extent | – | – | –
2 | O=C(O)c1cccnc1 [NA, niacin] | no statistical difference | inhibited the α-MSH expression to a certain extent | – | – | –
3 | NCCCCC(NC(=O)C(CCC(=O)O)NC(=O)C(CCCCN)NC(=O)C1CCCN1C(=O)c1cccnc1)C(=O)O (stereo not drawn) [peptide (1), NA-Pro-Lys-Glu-Lys-OH] (Nicotinoyl-PKEK-OH; configuration not given here) | – | – | no significant effect | – | –
4 | NCCCCC(NC(=O)C(CCC(=O)O)NC(=O)C(CCCCN)NC(=O)C1CCCN1C(=O)OCc1cc(=O)c(O)co1)C(=O)O (stereo not drawn) [peptide (5), KA-CO-Pro-Lys-Glu-Lys-OH] (X1-PKEK-OH; configuration not given here) | – | – | no significant effect | – | –
5 | H-Pro-Lys-Glu-Lys-OH (H-PKEK-OH) [reference peptide] | no statistical difference | inhibited the α-MSH expression to a certain extent | – | significantly down-regulated | inhibited the TNF-α expression to a certain extent, but the inhibitory effect was not obvious
6 | TXC-Pro-Lys-Glu-Lys-OH [peptide (3)] | – | significantly down-regulated | no significant effect | significantly down-regulated | significantly down-regulated
7 | tranexamic acid [TXC] | – | inhibited the α-MSH expression to a certain extent | – | – | –
